Experimental findings from PMC8625466 (Viruses, 2021) are described below.

For one data set, the system named is FMDV. Description: organism not typed. The format is cell-based, Foot-and-mouth-disease virus serotype A (NP05).
In another data set the target is FMDV 3C^pro (Foot-and-mouth disease virus, UniProt P03306). Description: cell-based.
Another data set can be described thus: in vitro. The conditions noted are these: hamster, Cytotoxicity (CC50).
Setting [1] is: BHK-21, 0 h, read-out: Viral (EC50).
The mark [2] stands for this setting: BHK-21, 2 h, read-out: Post-Viral (EC50).
[3] abbreviates: BHK-21, read-out: Prophylaxis (EC50).
[4] abbreviates: read-out: EC50 (low antiviral activities).

Read-outs that look alike come from different tables or passages of the source. Bounds are passed on as bounds.

Chain of FMDV 3C^pro (P03306 1650-1862 limits assumed): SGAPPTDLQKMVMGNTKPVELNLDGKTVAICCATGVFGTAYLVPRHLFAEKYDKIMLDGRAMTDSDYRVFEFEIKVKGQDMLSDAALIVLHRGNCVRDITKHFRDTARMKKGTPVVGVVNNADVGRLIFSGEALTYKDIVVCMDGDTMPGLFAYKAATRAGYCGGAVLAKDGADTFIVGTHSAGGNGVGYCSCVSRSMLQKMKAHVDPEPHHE

The term EC50 denotes the concentration giving half of the maximal effect. What is called IC50 is the concentration that gives 50% inhibition. The CC50 is the concentration giving 50% cytotoxicity. A high value points to lower toxicity to the cells. On to `COc1cc(O)c2c(=O)cc(-c3ccc(O)c(O)c3)oc2c1` [7-O-Methylluteolin], for which the EC50 is 75 to 100 µM in the data set with FMDV (setting [1]), 75 to 100 µM in the data set with FMDV (setting [2]), over 100 µM in the data set on FMDV (setting [3]) and 75 to 100 µM in the data set on FMDV (setting [4]). In addition, the IC50 against FMDV 3C^pro is over 200 µM. Further, the CC50 in the data set “in vitro” is over 100 µM.

On to `O=c1cc(-c2ccc(O)cc2)oc2cc(O)cc(O)c12` [Apigenin], for which the EC50 was 75 to 100 µM with FMDV (setting [1]), 75 to 100 µM in the data set with FMDV (setting [2]), over 100 µM with FMDV (setting [3]) and 75 to 100 µM with FMDV (setting [4]). On FMDV 3C^pro, this compound gave an IC50 of over 200 µM. Besides, the CC50 in “in vitro” is 68.7 ± 4.1 µM.

As for `O=C(O)[C@H]1O[C@@H](Oc2cc3oc(-c4ccccc4)cc(=O)c3c(O)c2O)[C@H](O)[C@@H](O)[C@@H]1O` [Baicalin], in the data set “in vitro”, the CC50 is over 100 µM.

As for `COc1ccc(-c2coc3cc(O[C@@H]4O[C@H](CO)[C@@H](O)[C@H](O)[C@H]4O)ccc3c2=O)cc1O` [Calycosin 7-O-glucoside], in the data set with BHK-21 cells, the CC50 is over 100 µM.

`O=C/C=C/c1ccccc1` [Cinnamaldehyde] showed a CC50 in “in vitro” of over 100 µM.

As to `COc1ccc(-c2cc(=O)c3c(O)cc(O[C@@H]4O[C@H](CO[C@@H]5O[C@@H](C)[C@H](O)[C@@H](O)[C@H]5O)[C@@H](O)[C@H](O)[C@H]4O)cc3o2)cc1O` [Diosmin], the CC50 in the data set “in vitro” was over 100 µM.

`O=C(O[C@@H]1Cc2c(O)cc(O)cc2O[C@@H]1c1cc(O)c(O)c(O)c1)c1cc(O)c(O)c(O)c1` [EGCG] registered a CC50 in the data set with BHK-21 cells of over 100 µM.

Take `COc1cc(C2Oc3cc([C@H]4Oc5cc(O)cc(O)c5C(=O)[C@@H]4O)ccc3OC2CO)ccc1O` (stereo partly drawn) [Flavobin]: half-maximal cytotoxicity in the data set “in vitro” (CC50) was put at 45.1 µM.

On to `COc1ccc([C@@H]2CC(=O)c3c(O)cc(O[C@@H]4O[C@H](CO[C@@H]5O[C@@H](C)[C@H](O)[C@@H](O)[C@H]5O)[C@@H](O)[C@H](O)[C@H]4O)cc3O2)cc1O` [Hesperidin], for which the CC50 in the data set with BHK-21 cells is over 100 µM.

Take `COc1ccc(-c2cc(=O)c3c(O)cc(O)c(-c4cc(-c5cc(=O)c6c(O)cc(O)cc6o5)ccc4OC)c3o2)cc1` [Isoginkgetin]: the EC50 came out at 2.01 ± 0.07 µM with FMDV (setting [1]), 1.93 ± 0.21 µM in the data set with FMDV (setting [2]) and 6.76 ± 0.8 µM in the data set on FMDV (setting [3]). Also, on FMDV 3C^pro, the “Fold increase of the FLuc over Renilla luciferase (Rluc) ratio” value (“Fold increase of the FLuc … (Rluc) ratio” below) is recorded as 2.65 fold. Half-maximal inhibition against FMDV 3C^pro (IC50) required 39.03 ± 0.05 µM. The compound also showed a CC50 in the data set “in vitro” of over 100 µM.

With `O=C(COc1cc(O)c2c(=O)cc(-c3ccccc3)oc2c1)c1ccc(F)cc1` [Kaempferol derivative, 7-[2-(4-Fluorophenyl)-2-oxoethoxy]-5-hydroxy-2-phenyl-4H-chromen-4-one], in “in vitro”, the CC50 is over 100 µM.

Compound `COc1ccc(-c2cc(=O)c3c(O)cc(O[C@@H]4O[C@H](CO[C@@H]5O[C@@H](C)[C@H](O)[C@@H](O)[C@H]5O)[C@@H](O)[C@H](O)[C@H]4O)cc3o2)cc1` [Linarin] registered a CC50 in the data set on BHK-21 cells of over 100 µM.

On to `O=C(/C=C/c1ccc(O)c2c1[C@H](C(=O)O)[C@@H](c1ccc(O)c(O)c1)O2)O[C@H](Cc1ccc(O)c(O)c1)C(=O)O` [Lithospermic acid], for which the CC50 in “in vitro” was over 100 µM.

On to `O=c1cc(-c2ccc(O)c(O)c2)oc2cc(O)cc(O)c12` [Luteolin], for which the figures for the EC50 in the data set on FMDV (setting [1]), in the data set with FMDV (setting [2]) and with FMDV (setting [3]) were 9.73 ± 0.94 µM, 10 ± 0.98 µM and 25.8 ± 1.29 µM, respectively. For the same compound, the “Fold increase of the FLuc … (Rluc) ratio” value at FMDV 3C^pro was determined as 1.86 fold. For the same compound, the IC50 on FMDV 3C^pro turned out to be 176.7 ± 0.05 µM. This compound also showed a CC50 in “in vitro” of over 100 µM.

`O=c1cc(-c2ccccc2)oc2cc(O[C@@H]3O[C@H](CO[C@@H]4O[C@H](CO)[C@@H](O)[C@H](O)[C@H]4O)[C@@H](O)[C@H](O)[C@H]3O)c(O)c(O)c12` [Oroxin B]: the CC50 in the data set with BHK-21 cells was 85.9 ± 7.4 µM.

`C[C@@H]1O[C@@H](Oc2cc(O)c3c(=O)c(O)c(-c4ccc(O)c(O)c4)oc3c2)[C@H](O)[C@H](O)[C@H]1O` [Quercetin 7-rhamnoside]: the values for the EC50 with FMDV (read-out: Post-Viral (EC50)), in the data set with FMDV (read-out: Prophylaxis (EC50)) and with FMDV (read-out: Viral (EC50)) were 75 to 100 µM, over 100 µM and over 100 µM, respectively. Besides, the IC50 at FMDV 3C^pro (read-out: IC50, cell-based protease assay) was over 200 µM. The CC50 in the data set on BHK-21 cells was over 100 µM.

Consider `NC(=O)c1ncn([C@@H]2O[C@H](CO)[C@@H](O)[C@H]2O)n1` [Ribavirin, reference compound], for which the EC50 was determined as 41.8 ± 1.58 µM in the data set on FMDV (setting [1]), 133 ± 2.03 µM in the data set with FMDV (setting [2]) and 283.9 ± 2.3 µM in the data set with FMDV (setting [3]). For the same compound, the CC50 in the data set “in vitro” is over 100 µM.

In the case of `CCOC(=O)/C=C/[C@H](C[C@@H]1CCNC1=O)NC(=O)[C@@H](CC(=O)[C@@H](NC(=O)c1cc(C)on1)C(C)C)Cc1ccc(F)cc1` [Rupintrivir, reference compound], the EC50 in the data set with FMDV (setting [1]) was found to be 1.99 ± 0.01 µM; with FMDV (setting [2]) it was 1.69 ± 0.19 µM; in the data set with FMDV (setting [3]) it was 11.8 ± 1.03 µM. Moreover, the “Fold increase of the FLuc … (Rluc) ratio” value on FMDV 3C^pro was determined as 4.27 fold. Also, on FMDV 3C^pro, it took 13.5 ± 0.19 µM to reach half-maximal inhibition (IC50). The compound further registered a CC50 in the data set “in vitro” of over 100 µM.

In turn, `O=C(/C=C/c1ccc(O)cc1)OC[C@H]1O[C@@H](Oc2c(-c3ccc(O)cc3)oc3cc(O)cc(O)c3c2=O)[C@H](O)[C@@H](O)[C@@H]1O` [Tiliroside] displayed a CC50 in the data set “in vitro” of over 100 µM.

For Epicatechin-3-gallate, in the data set on BHK-21 cells, half-maximal cytotoxicity (CC50) was put at 77 ± 8.85 µM.

As to Hyperoxide, the CC50 in the data set with BHK-21 cells was over 100 µM.

In the case of Methyl Hesperidin,(S), the CC50 in the data set with BHK-21 cells was over 100 µM.
